Measured values published in patent publication US4256632A, “Novel derivatives of daunomycin” (Yeda Research and Development Co. Ltd., priority 1978, dated 1981).
“Also recorded” adds a separate entry of the source.

Tested on: EL4 lymphoma
Experiment: Repeated treatments of mice bearing ip EL4 lymphoma
Format: in vivo, C57BL/6 mice
Design: Median survival time: unit not given here
Details: for Median survival time: mice that died of the tumor; for Antitumor (curing) effect in words: injected intraperitoneally at different intervals after tumor cell innoculation; for Relative effectivity among derivatives: comparison in words
Protocol: Four to six weeks old C57BL/6 mice were innoculated with the ascite lymphoma tumor EL4.BU. Daunomycin and its derivatives were injected intraperitoneally at different intervals after tumor cell innoculation.
Some of the mice were totally cured, with no physical manifestation of any side effects of the tested derivatized daunomycin compounds.
10^6 EL4 lymphoma cells were innoculated ip into C57BL/6 males. Drug
administration started 2 days later.
*Refers to the group of mice that died of the tumor.

lysyl-daunomycin [Lys-DM]
Long time survivors (over 60 days) (200 μg/mouse, 4 injections ip): 0 | Toxic deaths/No. mice treated (200 μg/mouse, 4 injections ip): 0/8 | Median survival time (200 μg/mouse, 4 injections ip): 28 | Long time survivors (over 60 days) (250 μg/mouse, 8 injections ip): 5 | Toxic deaths/No. mice treated (250 μg/mouse, 8 injections ip): 2/8 | Median survival time (250 μg/mouse, 8 injections ip): 26 | Antitumor (curing) effect in words: complete cure, or a significantly prolonged life span with no apparent toxic effects

COc1cccc2c1C(=O)c1c(O)c3c(c(O)c1C2=O)C[C@@](O)(C(C)=O)C[C@@H]3O[C@H]1C[C@H](NC(=O)[C@@H](N)Cc2cnc[nH]2)[C@H](O)[C@H](C)O1 [histidyl-daunomycin]
Antitumor (curing) effect in words: complete cure, or a significantly prolonged life span with no apparent toxic effects

COc1cccc2c1C(=O)c1c(O)c3c(c(O)c1C2=O)CC(O)(C(C)=O)CC3OC1CC(NC(=O)C(CCCNC(=N)N)NC(=O)C(N)CCCNC(=N)N)C(O)C(C)O1 (centres unmarked) [(arginyl)2 -daunomycin, arginyl-arginyl-daunomycin]
Antitumor (curing) effect in words: complete cure, or a significantly prolonged life span with no apparent toxic effects

lysyl-leucyl-daunomycin
Relative effectivity among derivatives: more effective than leucyl-daunomycin

COc1cccc2c1C(=O)c1c(O)c3c(c(O)c1C2=O)C[C@@](O)(C(C)=O)C[C@@H]3O[C@H]1C[C@H](NC(=O)[C@H](CCCCN)NC(=O)[C@H](CCCCN)NC(=O)[C@@H](N)CCCCN)[C@H](O)[C@H](C)O1 [(Lys)3 -DM, (lysyl)3 -daunomycin]
Long time survivors (over 60 days) (250 μg/mouse, 8 injections ip): 6 | Toxic deaths/No. mice treated (250 μg/mouse, 8 injections ip): 1/8 | Median survival time (250 μg/mouse, 8 injections ip): 25 | Antitumor (curing) effect in words: complete cure, or a significantly prolonged life span with no apparent toxic effects

(ornithyl)2 -daunomycin [(Orn)2 -DM]
Long time survivors (over 60 days) (300 μg/mouse, 8 injections ip): 6 | Toxic deaths/No. mice treated (300 μg/mouse, 8 injections ip): 1/8 | Relative effectivity among derivatives: much more effective than with ornithine | Antitumor (curing) effect in words: complete cure, or a significantly prolonged life span with no apparent toxic effects

arginyl-daunomycin [Arg-DM]
Long time survivors (over 60 days) (250 μg/mouse, 7 injections ip): 3 | Toxic deaths/No. mice treated (250 μg/mouse, 7 injections ip): 0/4 | Median survival time (250 μg/mouse, 7 injections ip): 35 | Long time survivors (over 60 days) (400 μg/mouse, 6 injections ip): 3 | Toxic deaths/No. mice treated (400 μg/mouse, 6 injections ip): 1/4

COc1cccc2c1C(=O)c1c(O)c3c(c(O)c1C2=O)C[C@@](O)(C(C)=O)C[C@@H]3OC1CC(NC(=O)C(N)CCN)C(O)C(C)O1.[Cl-].[Na+] (some centres unmarked) [Dbu-DM, diaminobutyryl-daunomycin]
Long time survivors (over 60 days) (650 μg/mouse, 8 injections ip): 12 | Toxic deaths/No. mice treated (650 μg/mouse, 8 injections ip): 0/14 | Median survival time (650 μg/mouse, 8 injections ip): 31 | Antitumor (curing) effect in words: complete cure, or a significantly prolonged life span with no apparent toxic effects

(ornithyl)n -daunomycin where n=2 to 5 [(Orn)5 -DM]
Long time survivors (over 60 days) (300 μg/mouse, 8 injections ip): 2 | Toxic deaths/No. mice treated (300 μg/mouse, 8 injections ip): 1/8 | Median survival time (300 μg/mouse, 8 injections ip): 38

(lysyl)2 -daunomycin [(Lys)2 -DM]
Long time survivors (over 60 days) (250 μg/mouse, 8 injections ip): 6 | Toxic deaths/No. mice treated (250 μg/mouse, 8 injections ip): 1/8 | Median survival time (250 μg/mouse, 8 injections ip): 24 | Antitumor (curing) effect in words: complete cure, or a significantly prolonged life span with no apparent toxic effects

COc1cccc2c1C(=O)c1c(O)c3c(c(O)c1C2=O)C[C@@](O)(C(C)=O)C[C@@H]3O[C@H]1C[C@H](NC(=O)C(N)Cc2ccc(O)c(O)c2)[C@H](O)[C@H](C)O1 (some centres unmarked) [DOPA-DM, dihydroxyphenylalanyl-daunomycin]
Long time survivors (over 60 days) (240 μg/mouse, 8 injections ip): 3 | Toxic deaths/No. mice treated (240 μg/mouse, 8 injections ip): 0/4 | Median survival time (240 μg/mouse, 8 injections ip): 28

aspartyl-lysyl-daunomycin [Asp-Lys-DM]
Long time survivors (over 60 days) (600 μg/mouse, 8 injections ip): 6 | Toxic deaths/No. mice treated (600 μg/mouse, 8 injections ip): 0/8 | Median survival time (600 μg/mouse, 8 injections ip): 31 | Relative effectivity among derivatives: more effective than aspartyl-daunomycin | Antitumor (curing) effect in words: complete cure, or a significantly prolonged life span with no apparent toxic effects

COc1cccc2c1C(=O)c1c(O)c3c(c(O)c1C2=O)C[C@@](O)(C(C)=O)C[C@@H]3O[C@H]1C[C@H](N)[C@H](O)[C@H](C)O1 [Daunomycin, daunomycin]
Long time survivors (over 60 days) (20 μg/mouse, 5 injections ip): 1 | Toxic deaths/No. mice treated (20 μg/mouse, 5 injections ip): 1/8 | Median survival time (20 μg/mouse, 5 injections ip): 17 | Long time survivors (over 60 days) (20 μg/mouse, 6 injections ip): 0 | Toxic deaths/No. mice treated (20 μg/mouse, 6 injections ip): 4/8 | Median survival time (20 μg/mouse, 6 injections ip): 15 | Long time survivors (over 60 days) (25 μg/mouse, 4 injections ip): 0 | Toxic deaths/No. mice treated (25 μg/mouse, 4 injections ip): 2/8 | Median survival time (25 μg/mouse, 4 injections ip): 14.5 | Long time survivors (over 60 days) (25 μg/mouse, 5 injections ip): 1 | Toxic deaths/No. mice treated (25 μg/mouse, 5 injections ip): 2/8 | Median survival time (25 μg/mouse, 5 injections ip): 24.5 | Long time survivors (over 60 days) (30 μg/mouse, 4 injections ip): 2 | Toxic deaths/No. mice treated (30 μg/mouse, 4 injections ip): 4/8 | Median survival time (30 μg/mouse, 4 injections ip): 25 | Long time survivors (over 60 days) (40 μg/mouse, 1 injection ip): 0 | Toxic deaths/No. mice treated (40 μg/mouse, 1 injection ip): 2/8 | Median survival time (40 μg/mouse, 1 injection ip): 19 | Long time survivors (over 60 days) (40 μg/mouse, 4 injections ip): 0 | Toxic deaths/No. mice treated (40 μg/mouse, 4 injections ip): 4/8 | Median survival time (40 μg/mouse, 4 injections ip): 18 | Long time survivors (over 60 days) (50 μg/mouse, 2 injections ip): 0 | Toxic deaths/No. mice treated (50 μg/mouse, 2 injections ip): 2/8 | Median survival time (50 μg/mouse, 2 injections ip): 19 | Long time survivors (over 60 days) (60 μg/mouse, 1 injection ip): 0 | Toxic deaths/No. mice treated (60 μg/mouse, 1 injection ip): 6/8 | Median survival time (60 μg/mouse, 1 injection ip): 18 | Long time survivors (over 60 days) (80 μg/mouse, 1 injection ip): 0 | Toxic deaths/No. mice treated (80 μg/mouse, 1 injection ip): 8/8 | Median survival time (80 μg/mouse, 1 injection ip): 17 | Effects at high doses (doses exceeding 70 μg/mouse in a single injection, or lower doses in multiple injections): acute toxicity marked by a generally wasted appearance and death, to no efficient depression of the growing tumor | Antitumor (curing) effect in words: no satisfactory curing effects; also recorded: very narrow border-zone between excessive toxicity and poor curative efficiency
